The record followed here is US9546144B2, “Bifunctional compounds” (University of Pittsburgh—of the Commonwealth System of …, priority 2011, dated 2017).

For one series, the system named is Brine shrimp. The experiment in a line: brine shrimp toxicity assay. Type of series: in vivo. The note with it: concentrations up to 20 mg/mL. On the procedure:
General procedure for brine shrimp toxicity assays. Sample preparation. Stock solutions of 3 were prepared by dissolving 3 (50.0 mg) in 5.0 HPLC grade water (5.0 mL), (solution A) and 3 (2.50 g) in HPLC grade water (10.0 mL) (solution B). Stock solutions of DMSO were prepared by diluting DMSO (45 μL) with HPLC grade water (5.0 mL) (solution C) and DMSO (2.27 mL) with HPLC grade water (10.0 mL) (solution D).
In each case, 5 replicates were performed. Each replicate was performed in a 2 dram vial marked at the 4 and 5 mL volume points. To each vial was added artificial sea water (3 mL) followed by the appropriate volume of stock solution. For set 1 (1.0 mg/mL), solution A (0.500 mL) or solution C (0.500 mL) was added. For set 2 (5.0 mg/mL), solution B (0.100 mL) or solution D (0.100 mL) was added to each vial. For set 3 (20.0 mg/mL), solution B (0.400 mL) or solution D (0.400 mL) was added to each vial. For set 4 (50.0 mg/mL), solution B (1.00 mL) or solution D (1.00 mL) was added to each vial. […]
Brine shrimp eggs (San Francisco Bay Brand) were hatched in a commercial salt mixture (Instant Ocean). […] The shrimp were counted at t=24 h. Another drop of freshly prepared yeast solution (6 mg in 10 mL sea water) was added, the vials were maintained under illumination, and shrimp were counted at t=48 h. […]

For a further series, the system named is 32D cl 3 cells. The experiment in a line: irradiated 32D cl 3 cells, cell number and viability. The class given is cell-based. The note with it: 10 μM, 0-7 Gy, Day 3 or 5 after irradiation. The procedure: FIG. 10. The data are from a screening experiment where 32D cl 3 cells were irradiated to doses of 0, 1, 3, 5, or 7 Gy and placed in T25 flasks. Either JP4-039 or MM350 were added at 10 μM and incubated in a CO2 incubator at 37° C. At Day 3 or 5 after irradiation, the cells were counted and the viability determined.

For `CC1(C[S+]([O-])CC2(C)COC2)COC1` [compound 3, 3,3′-Sulfinylbis(methylene)bis(3-methyloxetane)], in the series on Brine shrimp, the “mortality after 48 h” value is on record as under 10%. The “number of cells and viability after irradiation” value in the series with 32D cl 3 cells was “comparable to JP4-039”.
